From patent US20230416240A1, “KAT6 TARGETING COMPOUNDS” (Prelude Therapeutics Incorporated, priority 2022, published 2023)

Tests used:
KAT6A = target: T1, KAT6A (Homo sapiens, UniProt Q92794); test: Western Blot KAT6A Degradation Assessment; assay type: cell-based; conditions: 0.1 μM compound, 24 hours of treatment, HCC1954 cell line, KAT6A normalized to GAPDH and DMSO
T1 construct: These studies were conducted in the HCC1954 cell line which harbors a KAT6A copy number amplification; endogenous in cells; host or cells: HCC1954
T1 sequence (Q92794 whole entry): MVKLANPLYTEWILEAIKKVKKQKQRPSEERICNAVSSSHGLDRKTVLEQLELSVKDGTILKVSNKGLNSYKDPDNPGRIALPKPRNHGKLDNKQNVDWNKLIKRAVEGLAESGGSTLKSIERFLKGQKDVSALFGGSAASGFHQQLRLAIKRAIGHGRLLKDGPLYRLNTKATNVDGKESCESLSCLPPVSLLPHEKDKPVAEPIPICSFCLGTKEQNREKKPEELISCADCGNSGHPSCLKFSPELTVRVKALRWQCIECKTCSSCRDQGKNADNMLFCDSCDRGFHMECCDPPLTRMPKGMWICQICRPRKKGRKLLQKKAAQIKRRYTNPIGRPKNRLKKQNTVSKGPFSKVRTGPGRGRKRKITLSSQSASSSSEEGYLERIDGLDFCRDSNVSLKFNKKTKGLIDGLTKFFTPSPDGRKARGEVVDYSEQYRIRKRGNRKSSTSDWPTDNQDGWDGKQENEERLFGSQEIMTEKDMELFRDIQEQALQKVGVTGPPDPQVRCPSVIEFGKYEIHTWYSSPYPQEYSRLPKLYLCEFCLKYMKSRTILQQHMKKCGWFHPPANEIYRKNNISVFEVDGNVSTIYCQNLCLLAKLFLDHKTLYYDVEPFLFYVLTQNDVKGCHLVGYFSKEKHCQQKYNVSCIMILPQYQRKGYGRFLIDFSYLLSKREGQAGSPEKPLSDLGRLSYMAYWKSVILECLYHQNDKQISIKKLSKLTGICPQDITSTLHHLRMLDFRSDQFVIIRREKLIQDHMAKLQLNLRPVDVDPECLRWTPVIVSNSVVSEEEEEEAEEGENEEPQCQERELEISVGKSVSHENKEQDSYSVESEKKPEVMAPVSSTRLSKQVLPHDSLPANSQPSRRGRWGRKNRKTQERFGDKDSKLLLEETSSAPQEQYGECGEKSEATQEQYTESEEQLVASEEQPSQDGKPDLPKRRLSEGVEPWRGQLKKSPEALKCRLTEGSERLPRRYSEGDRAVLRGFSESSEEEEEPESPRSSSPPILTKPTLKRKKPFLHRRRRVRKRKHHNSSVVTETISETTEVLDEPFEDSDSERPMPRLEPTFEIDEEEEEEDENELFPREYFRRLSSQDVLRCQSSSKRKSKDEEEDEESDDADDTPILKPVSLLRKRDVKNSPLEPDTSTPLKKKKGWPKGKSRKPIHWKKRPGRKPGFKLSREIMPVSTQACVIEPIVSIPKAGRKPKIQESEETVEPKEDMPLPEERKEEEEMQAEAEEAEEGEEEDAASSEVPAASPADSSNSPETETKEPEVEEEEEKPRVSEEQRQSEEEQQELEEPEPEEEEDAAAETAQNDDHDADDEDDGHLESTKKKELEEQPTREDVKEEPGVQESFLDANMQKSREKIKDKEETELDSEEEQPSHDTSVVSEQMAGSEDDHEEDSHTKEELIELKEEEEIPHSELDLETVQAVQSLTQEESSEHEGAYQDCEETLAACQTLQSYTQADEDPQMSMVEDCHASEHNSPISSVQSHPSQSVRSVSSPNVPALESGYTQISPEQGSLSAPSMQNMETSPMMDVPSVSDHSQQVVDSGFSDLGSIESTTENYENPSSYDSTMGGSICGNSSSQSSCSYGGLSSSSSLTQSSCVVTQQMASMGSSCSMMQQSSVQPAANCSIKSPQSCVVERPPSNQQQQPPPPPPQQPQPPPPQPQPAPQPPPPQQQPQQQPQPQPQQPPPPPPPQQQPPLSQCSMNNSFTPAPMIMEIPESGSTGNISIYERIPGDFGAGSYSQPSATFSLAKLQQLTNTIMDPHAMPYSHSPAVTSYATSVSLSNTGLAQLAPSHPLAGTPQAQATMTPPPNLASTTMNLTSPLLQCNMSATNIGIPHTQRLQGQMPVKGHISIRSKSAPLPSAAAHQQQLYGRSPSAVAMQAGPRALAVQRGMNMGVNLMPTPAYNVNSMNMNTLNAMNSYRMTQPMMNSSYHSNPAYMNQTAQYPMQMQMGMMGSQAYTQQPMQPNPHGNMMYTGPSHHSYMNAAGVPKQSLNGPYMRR
Procedure: The activity of compounds was evaluated by measuring KAT6A protein levels as a readout of KAT6A degradation ability using western blot. These studies were conducted in the HCC1954 cell line which harbors a KAT6A copy number amplification. Cells were maintained in a 37° C. incubator at 5% CO2 in the following media: RPMI 1640, ATCC© Modification (Gibco, A10491-01) supplemented with 10% v/v FBS (Gibco, 26140-079) and 1% penicillin streptomycin (Gibco, 15140-122). Cells were seeded in 6-well plates at a density of 300,000 cells/well and allowed to attach overnight in an incubator. Compounds dissolved in DMSO were prepared at 1000× the desired final concentration such that the final percentage of DMSO was 0.1%. After 24 hours of treatment, cells were washed with phosphate buffered saline (PBS) (Corning, 21-040-CV), detached with trypsin-EDTA (Gibco, #25200-056), and pelleted in complete RPMI media in a microcentrifuge for 5 min at 1500 rpm. Protein was extracted from cell pellets by re-suspending in 15 uL PBS before adding 45 uL of lysis buffer composed of 4% SDS, 1× protease and phosphatase inhibitors, and 1 mM PMSF (Cell Signaling Technology, #8553S). Lysates were transferred to homogenizer columns (Omega Biotek, #HCR003) and centrifuged for 1.5 min at 12,000 rpm.
Homogenized lysates were quantified by BCA assay (ThermoScientific, Pierce BCA Protein Assay, #23223, #23224) as per manufacturer instructions. Samples were then diluted in 4× Laemmli buffer (Biorad, #1610747) to a 1× solution which was boiled at 95° C. for 5 minutes. To assess KAT6A protein expression, samples were run on 26 well gels (Biorad, 4-15% Criterion TGX Precast gels, #5671085) at 120V for approximately 1 hour. Protein was transferred to low-fluorescence PVDF membranes (Millipore Sigma, #IPFL00010) using Trans-Blot Turbo Transfer System (Biorad). Membranes were then probed with KAT6A (Cell Signaling Technology, #78462) and GAPDH (Cell Signaling Technology, #5174S) primary, and fluorescently tagged secondary antibodies (LI-COR, IRDye 800CW Goat anti-rabbit #926-32211; IRDye 680RD Goat anti-mouse #926-68070) at manufacturer recommended conditions using the iBind Flex western device (Thermofisher, SLF2000). Membranes were washed briefly in water and scanned with a LI-COR Odyssey CLx. Quantification of bands was assessed using Image Studio Ver 5.2. to normalize KAT6A expression to GAPDH loading controls before representing KAT6A expression as a percentage of that observed in DMSO.

HiBit tagged KAT6A = target: T2, HiBit tagged KAT6A (Homo sapiens, UniProt Q92794); test: HiBit KAT6A Degradation Assessment; assay type: cell-based; conditions: HeLa cells with HiBit tagged KAT6A, 18 h of treatment, 9-point serial dilution
T2 construct: host or cells: HeLa
T2 sequence (Q92794 whole entry): as above
Procedure: The degradation activity of compounds was evaluated by measuring levels of KAT6A protein using the HiBiT system. These studies were conducted in HeLa cells with a HiBit tagged KAT6A. Cells were maintained in a 37° C. incubator at 5% CO2 in EMEM (ATCC, 30-2003) supplemented with 10% v/v FBS (Gibco, 26140-079) and 1% penicillin streptomycin. Cells were seeded in 384-well plates at a density of 2,000 cells/well. Compounds dissolved in DMSO were added in 9-point serial dilution. After 18 h of treatment, KAT6A levels were measured using the Nano-Glo® HiBiT Lytic Detection System (Promega catalog number N3030) per manufacturer's instructions. Luminescence signal was measured with a multimode plate reader (Envision 2105, Perkin Elmer). Luminescence values were normalized to background and DMSO controls to quantify KAT6A for each condition. Results were analyzed, and DC50 and Dmax values obtained using a four-parameter logistic curve fit.

Row | inhibition at 0.1 µM (KAT6A) [%] | DC50 (HiBit tagged KAT6A) [nM] | Dmax (HiBit tagged KAT6A) [%] | Structure (SMILES)
1 | > 75 | < 10 | > 75 | COc1cc(Cn2cccn2)cc2onc(NS(=O)(=O)c3cccc(N4CC5(CCN(CC6CCN(c7ccc8c(c7)C(=O)N(C7CCC(=O)NC7=O)C8=O)C6)CC5)C4)c3)c12 (centres unmarked) [Example 5, 3-[7-[[1-[2-(2,6-Dioxopiperidin-3-yl)-1,3-dioxoisoindol-5-yl]pyrrolidin-3-yl]methyl]-2,7-diazaspiro[3.5]nonan-2-yl]-N-[4-methoxy-6-(pyrazol-1-ylmethyl)-1,2-benzoxazol-3-yl]benzenesulfonamide]
2 | 50 to 75 | 10 to 100 | 50 to 75 | COc1cc(Cn2cccn2)cc2onc(NS(=O)(=O)c3cccc(N4CC5(CN(CC6CCN(c7ccc8c(c7)C(=O)N(C7CCC(=O)NC7=O)C8=O)C6)C5)C4)c3)c12 (centres unmarked) [Example 11, 3-[6-[[1-[2-(2,6-dioxopiperidin-3-yl)-1,3-dioxoisoindol-5-yl]pyrrolidin-3-yl]methyl]-2,6-diazaspiro[3.3]heptan-2-yl]-N-[4-methoxy-6-(pyrazol-1-ylmethyl)-1,2-benzoxazol-3-yl]benzenesulfonamide]
3 | 50 to 75 | 100 to 1000 | 50 to 75 | COc1cc(Cn2cccn2)cc2onc(NS(=O)(=O)c3cccc(N4CCN(CC5CCN(c6ccc7c(c6)C(=O)N(C6CCC(=O)NC6=O)C7=O)C5)CC4)c3)c12 (centres unmarked) [Example 1, N-(6-((1H-Pyrazol-1-yl)methyl)-4-methoxybenzo[d]isoxazol-3-yl)-3-(4-((1-(2-(2,6-dioxopiperidin-3-yl)-1,3-dioxoisoindolin-5-yl)pyrrolidin-3-yl)methyl)piperazin-1-yl)benzenesulfonamide]
4 | 50 to 75 | – | 25 to 50 | COc1cc(Cn2cccn2)cc2onc(NS(=O)(=O)c3cccc(N4CCN(CC5CCN(c6ccc7c(c6)CN(C6CCC(=O)NC6=O)C7=O)C5)CC4)c3)c12 (centres unmarked) [Example 10, 3-[4-[[1-[2-(2,6-Dioxopiperidin-3-yl)-1-oxo-3H-isoindol-5-yl]pyrrolidin-3-yl]methyl]piperazin-1-yl]-N-[4-methoxy-6-(pyrazol-1-ylmethyl)-1,2-benzoxazol-3-yl]benzenesulfonamide]
5 | 50 to 75 | 10 to 100 | 50 to 75 | COc1cc(Cn2cccn2)cc2onc(NS(=O)(=O)c3cccc(N4CCC(CN5CCN(c6ccc7c(c6)c6cccnc6n7C6CCC(=O)NC6=O)CC5)C4)c3)c12 (centres unmarked) [Example 6, 3-[3-[[4-[9-(2,6-Dioxopiperidin-3-yl)pyrido[2,3-b]indol-6-yl]piperazin-1-yl]methyl]pyrrolidin-1-yl]-N-[4-methoxy-6-(pyrazol-1-ylmethyl)-1,2-benzoxazol-3-yl]benzenesulfonamide]
6 | 0 to 50 | 10 to 100 | 50 to 75 | COc1cc(Cn2cccn2)cc2onc(NS(=O)(=O)c3cccc(N4CCN(CCC5CCN(c6ccc7c(c6)C(=O)N(C6CCC(=O)NC6=O)C7=O)C5)CC4)c3)c12 (centres unmarked) [Example 9, 3-[4-[2-[1-[2-(2,6-Dioxopiperidin-3-yl)-1,3-dioxoisoindol-5-yl]pyrrolidin-3-yl]ethyl]piperazin-1-yl]-N-[4-methoxy-6-(pyrazol-1-ylmethyl)-1,2-benzoxazol-3-yl]benzenesulfonamide]
7 | 0 to 50 | 10 to 100 | 50 to 75 | COc1cc(Cn2cccn2)cc2onc(NS(=O)(=O)c3cccc(N4CCN(CCC5CCN(c6ccc7c(c6)C(=O)N(C6CCC(=O)NC6=O)C7=O)CC5)CC4)c3)c12 (centres unmarked) [Example 3, N-(6-((1H-Pyrazol-1-yl)methyl)-4-methoxybenzo[d]isoxazol-3-yl)-3-(4-(2-(1-(2-(2,6-dioxopiperidin-3-yl)-1,3-dioxoisoindolin-5-yl)piperidin-4-yl)ethyl)piperazin-1-yl)benzenesulfonamide]
8 | > 75 | 10 to 100 | 50 to 75 | COc1cc(Cn2cccn2)cc2onc(NS(=O)(=O)c3cccc(N4CCN(C5CC6(CCN(c7ccc8c(c7)C(=O)N(C7CCC(=O)NC7=O)C8=O)C6)C5)CC4)c3)c12 (centres unmarked) [Example 8, 3-[4-[6-[2-(2,6-Dioxopiperidin-3-yl)-1,3-dioxoisoindol-5-yl]-6-azaspiro[3.4]octan-2-yl]piperazin-1-yl]-N-[4-methoxy-6-(pyrazol-1-ylmethyl)-1,2-benzoxazol-3-yl]benzenesulfonamide]
9 | 50 to 75 | 10 to 100 | > 75 | COc1cc(Cn2cccn2)cc2onc(NS(=O)(=O)c3cccc(N4CCN(C5CC6(CCN(c7ccc8c(c7)C(=O)N(C7CCC(=O)NC7=O)C8=O)CC6)C5)CC4)c3)c12 (centres unmarked) [Example 4, 3-[4-[7-[2-(2,6-Dioxopiperidin-3-yl)-1,3-dioxoisoindol-5-yl]-7-azaspiro[3.5]nonan-2-yl]piperazin-1-yl]-N-[4-methoxy-6-(pyrazol-1-ylmethyl)-1,2-benzoxazol-3-yl]benzenesulfonamide]
10 | > 75 | < 10 | > 75 | COc1cc(Cn2cccn2)cc2onc(NS(=O)(=O)c3cccc(N4CCN(CC5CCN(CC6CCN(c7ccc8c(c7)C(=O)N(C7CCC(=O)NC7=O)C8=O)CC6)CC5)CC4)c3)c12 (centres unmarked) [Example 7, 3-[4-[[1-[[1-[2-(2,6-Dioxopiperidin-3-yl)-1,3-dioxoisoindol-5-yl]piperidin-4-yl]methyl]piperidin-4-yl]methyl]piperazin-1-yl]-N-[4-methoxy-6-(pyrazol-1-ylmethyl)-1,2-benzoxazol-3-yl]benzenesulfonamide]
